According to patent US8754079B2, “Cycloalkyl containing thienopyrimidines for pharmaceutical compositions” (Boehringer Ingelheim International GmbH, priority 2010, dated 2014):
“And” between values parts separate entries of the source, which are not always exact repeats. Equal values may be shown once. Where a name gives a salt, the structure may show the parent alone.

Target: T1, MNK2 (Homo sapiens, UniProt Q9HBH9)
T1 construct: the open reading frames of human Mnk1 and Mnk2a were amplified from cDNA; made in house; host or cells: E. coli BL21
T1 sequence (Q9HBH9 whole entry): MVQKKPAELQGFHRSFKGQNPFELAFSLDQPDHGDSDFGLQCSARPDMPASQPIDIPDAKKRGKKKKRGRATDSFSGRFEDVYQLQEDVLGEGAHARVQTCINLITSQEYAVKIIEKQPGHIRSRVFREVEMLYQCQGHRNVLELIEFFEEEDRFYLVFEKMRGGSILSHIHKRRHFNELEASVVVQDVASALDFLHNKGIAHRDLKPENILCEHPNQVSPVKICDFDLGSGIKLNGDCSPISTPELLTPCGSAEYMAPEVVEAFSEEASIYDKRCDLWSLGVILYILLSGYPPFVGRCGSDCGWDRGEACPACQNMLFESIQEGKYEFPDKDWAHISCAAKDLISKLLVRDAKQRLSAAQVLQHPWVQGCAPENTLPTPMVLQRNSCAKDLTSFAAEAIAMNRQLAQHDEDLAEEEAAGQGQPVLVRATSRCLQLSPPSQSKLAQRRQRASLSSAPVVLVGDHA
Assay: Mnk2a in vitro kinase assay (indirect fluorescence polarization)
Type: biochemical
Settings: pre-activated GST-Mnk2a 2.5 nM, 20 μM ATP, 30 μM substrate peptide
Method in brief: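 Human GST-Mnk2a was expressed in E. coli and activated in vitro with 150 nM pre-activated ERK2 and 50 μM ATP in HEPES pH 7.4/MgCl2 buffer (45 min, 30 °C). Activity on an eIF4E Ser209-derived 12mer peptide was read by competitive fluorescence polarization with a phospho-specific antibody.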

Molecule	IC50
COCCN(C)[C@H]1CC[C@@H](Oc2cc(F)ccc2Nc2ncnc3sc(C(N)=O)c(C)c23)CC1 [Example 23, 4-(4-Fluoro-2-(cis-4-((2-methoxyethyl)(methyl)amino)cyclohexyloxy)phenylamino)-5-methylthieno[2,3-d]pyrimidine-6-carboxamide]	920 nM
Cc1c(C(=O)NCC#CCN(C)C)sc2ncnc(Nc3ccc(F)cc3O[C@@H]3CCC[C@@H](O)C3)c12 (racemic) [Example 65]	16 nM
COC1CCCC(Oc2cc(F)ccc2Nc2ncnc3sc(C(=O)NCCCCO)c(C)c23)C1 (stereo not drawn) [Example 81]	98 nM
CO[C@@H]1CCC[C@@H](Oc2ncccc2Nc2ncnc3sc(C(=O)NCCCN4CCOCC4)c(C)c23)C1 (racemic) [Example 139]	84 nM
CC(=O)N[C@H]1CC[C@H](Oc2cc(F)ccc2Nc2ncnc3sc(C(=O)NC4CCN(C)CC4)c(C)c23)C1 [Example 234]	32 nM
COC1CCCC(Oc2ncccc2Nc2ncnc3sc(C(=O)NCC4CNCCO4)c(C)c23)C1 (mixture of isomers) [Example 119]	11 nM
Cc1c(C(=O)NCCO)sc2ncnc(Nc3ccc(F)cc3O[C@H]3CC[C@H](O)CC3)c12 [Example 155]	9 nM
Cc1c(C(N)=O)sc2ncnc(Nc3ccc(F)cc3O[C@H]3CC[C@H](N)C3)c12 [Example 229, 4-[2-((1S,3S)-3-Amino-cyclopentyloxy)-4-fluoro-phenylamino]-5-methyl-thieno[2,3-d]pyrimidine-6-carboxylic acid amide trifluoroacetate]	7 nM
CO[C@H]1CCC[C@@H](Oc2ncccc2Nc2ncnc3sc(C(=O)NCc4cn(C)cn4)c(C)c23)C1 (racemic) [Example 128]	19 nM
CO[C@H]1CC[C@H](Oc2cc(F)ccc2Nc2ncnc3sc(C(=O)NCCCn4ccnc4)c(C)c23)CC1 [Example 197]	1 nM
CO[C@H]1CC[C@H](Oc2cc(F)ccc2Nc2ncnc3sc(C(=O)NCCO)c(C)c23)CC1 [Example 196]	17 nM
CC(=O)N[C@H]1C[C@H](Oc2cc(F)ccc2Nc2ncnc3sc(C(=O)O)c(C)c23)C1 [Example 35.2, 4-[2-(trans-3-Acetylamino-cyclobutoxy)-4-fluoro-phenylamino]-5-methyl-thieno[2,3-d]pyrimidine-6-carboxylic acid]	23 nM
CO[C@H]1CC[C@H](Oc2cc(F)ccc2Nc2ncnc3sc(C(=O)NCc4cn(C)cn4)c(C)c23)CC1 [Example 186]	20 nM
Cc1c(C(=O)NCCN2CCCCC2)sc2ncnc(Nc3ccc(F)cc3O[C@@H]3CCC[C@@H](O)C3)c12 (racemic) [Example 72]	23 nM
Cc1c(C(N)=O)sc2ncnc(Nc3ccc(F)cc3O[C@@H]3CCC[C@H](O)C3)c12 (racemic) [Example 57, Racemic 4-[4-Fluoro-2-((cis)-3-hydroxy-cyclohexyloxy)-phenylamino]-5-methyl-thieno[2,3-d]pyrimidine-6-carboxylic acid amide]	7 nM
Cc1c(C(=O)NC2CCN(C)CC2)sc2ncnc(Nc3ccc(F)cc3OC3CCCCC3O)c12 (single isomer, unassigned) [Example 259]	346 nM
Cc1c(C(N)=O)sc2ncnc(Nc3ccc(F)cc3OC3C[C@@H](O)[C@H](O)C3)c12 (relative stereo) [Example 211]	8 nM
Cc1c(C(N)=O)sc2ncnc(Nc3ccc(F)cc3O[C@@H]3CCCC[C@H]3N(C)S(C)(=O)=O)c12 (racemic) [Example 13, Racemic 4-(4-Fluoro-2-(trans-2-(N-methylmethylsulfonamido)cyclohexyloxy)phenylamino)-5-methylthieno[2,3-d]pyrimidine-6-carboxamide]	440 nM
COC1CCCC(Oc2cc(F)ccc2Nc2ncnc3sc(C(=O)NCc4cn(C)cn4)c(C)c23)C1 (stereo not drawn) [Example 107]	18 nM
COCCN[C@H]1CC[C@@H](Oc2cc(F)ccc2Nc2ncnc3sc(C(N)=O)c(C)c23)CC1 [Example 25, 4-(4-Fluoro-2-(cis-4-(2-methoxyethylamino)cyclohexyloxy)phenylamino)-5-methylthieno[2,3-d]pyrimidine-6-carboxamide]	300 nM
Cc1c(C(=O)NCc2cnco2)sc2ncnc(Nc3ccc(F)cc3O[C@H]3CC[C@H](O)CC3)c12 [Example 162]	10 nM
CO[C@@H]1CCCC[C@H]1Oc1cc(F)ccc1Nc1ncnc2sc(C(=O)NCC[S+](C)[O-])c(C)c12 (stereo partly drawn) [Example 255]	14 nM
CN[C@H]1CCC[C@@H](Oc2cc(F)ccc2Nc2ncnc3sc(C(N)=O)c(C)c23)C1 (relative stereo) [Example 17, 4-(4-Fluoro-2-(cis-3-(N-methylamino)cyclohexyloxy)phenylamino)-5-methylthieno[2,3-d]pyrimidine-6-carboxamide]	28 nM
Cc1c(C(=O)N[C@H]2CC[C@H](O)CC2)sc2ncnc(Nc3ccc(F)cc3O[C@@H]3CCC[C@@H](O)C3)c12 (racemic) [Example 69]	34 nM

Molecule	IC50
Cc1c(C(N)=O)sc2ncnc(Nc3ccc(F)cc3OC3CCC(F)(F)CC3)c12 [Example 33, 4-[2-(4,4-Difluoro-cyclohexyloxy)-4-fluoro-phenylamino]-5-methyl-thieno[2,3-d]pyrimidine-6-carboxylic acid amide]	7 nM
CNC(=O)CNC(=O)c1sc2ncnc(Nc3ccc(F)cc3O[C@@H]3CCC[C@@H](O)C3)c2c1C (racemic) [Example 64]	21 nM
CO[C@H]1CCC[C@@H](Oc2cc(F)ccc2Nc2ncnc3sc(C(=O)NCCN4CCCCC4)c(C)c23)C1 (racemic) [Example 103]	50 nM
CO[C@@H]1CCC[C@@H](Oc2ncccc2Nc2ncnc3sc(C(=O)NCC#N)c(C)c23)C1 (racemic) [Example 136]	44 nM
CC(=O)N(C)[C@H]1CC[C@H](Oc2cc(F)ccc2Nc2ncnc3sc(C(N)=O)c(C)c23)C1 [Example 240, 4-{2-[(1S,3S)-3-(Acetyl-methyl-amino)-cyclopentyloxy]-4-fluoro-phenylamino}-5-methyl-thieno[2,3-d]pyrimidine-6-carboxylic acid amide]	13 nM
Cc1c(C(=O)N[C@H]2C[C@@H]2N)sc2ncnc(Nc3ccc(F)cc3O[C@H]3CC[C@H](O)CC3)c12 [Example 159]	16 nM
Cc1c(C(=O)NCCCN2CCCC2)sc2ncnc(Nc3ccc(F)cc3O[C@H]3CC[C@H](O)CC3)c12 [Example 153, 4-[4-Fluoro-2-(trans-4-hydroxy-cyclohexyloxy)-phenylamino]-5-methyl-thieno[2,3-d]pyrimidine-6-carboxylic acid (3-pyrrolidin-1-yl-propyl)-amide]	9 nM
CC(=O)N[C@H]1C[C@H](Oc2cc(F)ccc2Nc2ncnc3sc(C(=O)NCCO)c(C)c23)C1 [Example 41]	152 nM
CO[C@H]1CC[C@H](Oc2cc(F)ccc2Nc2ncnc3sc(C(=O)N[C@H]4C[C@@H]4N)c(C)c23)CC1 [Example 189]	28 nM
COC1CCCC(Oc2cc(F)ccc2Nc2ncnc3sc(C(=O)NCC4COCCN4)c(C)c23)C1 (stereo not drawn) [Example 84]	91 nM
Cc1c(C(=O)NCC2COCCN2)sc2ncnc(Nc3ccc(F)cc3OC3CCCC(O)C3)c12 (mixture of isomers) [Example 68]	31 nM
COCCN(C)[C@H]1CC[C@H](Oc2cc(F)ccc2Nc2ncnc3sc(C(N)=O)c(C)c23)CC1 [Example 22, 4-(4-Fluoro-2-(trans-4-((2-methoxyethyl)(methyl)amino)cyclohexyloxy)phenylamino)-5-methylthieno[2,3-d]pyrimidine-6-carboxamide]	65 nM
Cc1c(C(=O)NCCCN2CCOCC2)sc2ncnc(Nc3ccc(F)cc3O[C@@H]3CCC[C@@H](O)C3)c12 (racemic) [Example 66]	26 nM
Cc1c(C(=O)O)sc2ncnc(Nc3ccc(F)cc3O[C@@H]3CCCC[C@@H]3O)c12 (single isomer, unassigned) [Example 258, 4-[4-fluoro-2-(cis-2-hydroxy-cyclohexyloxy)-phenylamino]-5-methyl-thieno[2,3-d]pyrimidine-6-carboxylic acid]	110 nM
CO[C@H]1CCC[C@@H](Oc2ncccc2Nc2ncnc3sc(C(=O)NCC#CCN)c(C)c23)C1 (racemic) [Example 112]	13 nM
CO[C@@H]1C[C@H](OC)C[C@H](Oc2cc(F)ccc2Nc2ncnc3sc(C(N)=O)c(C)c23)C1 [Example 29]	90 nM
Cc1c(C(N)=O)sc2ncnc(Nc3ccc(F)cc3OC3CCC3)c12 [Example 243, 4-(2-Cyclobutoxy-4-fluoro-phenylamino)-5-methyl-thieno[2,3-d]pyrimidine-6-carboxylic acid amide]	9 nM
Cc1c(C(=O)NCC#CCN)sc2ncnc(Nc3ccc(F)cc3O[C@H]3CC[C@H](O)CC3)c12 [Example 160]	6 nM
CN[C@H]1CC[C@H](Oc2cc(F)ccc2Nc2ncnc3sc(C(N)=O)c(C)c23)CC1 [Example 12, 4-(4-Fluoro-2-(trans-4-(methylamino)cyclohexyloxy)phenylamino)-5-methylthieno[2,3-d]pyrimidine-6-carboxamide]	7 nM
CO[C@H]1CCC[C@@H](Oc2cc(F)ccc2Nc2ncnc3sc(C(=O)NCCCO)c(C)c23)C1 (racemic) [Example 105]	24 nM
CO[C@H]1C[C@@H](Oc2cc(F)ccc2Nc2ncnc3sc(C(N)=O)c(C)c23)C[C@H]1OC [Example 216]	53 nM
CNC(=O)c1sc2ncnc(Nc3cccnc3O[C@H]3CC[C@H](N)CC3)c2c1C [Example 285]	9 nM
4-(4-fluoro-2-(cis-3-hydroxycyclopentyloxy)phenylamino)-5-methylthieno[2,3-d]pyrimidine-6-carboxamide and 4-(4-fluoro-2-(trans-3-hydroxycyclopentyloxy)phenylamino)-5-methylthieno[2,3-d]pyrimidine-6-carboxamide [Example 242]	5 nM and 4 nM
Cc1c(C(N)=O)sc2ncnc(Nc3ccc(F)cc3O[C@@H]3CC[C@H](O)[C@@H]3O)c12 (relative stereo) [Example 223]	18 nM
